# Measured values: patent publication US9347077B2, “Over-expression of a putative oxidoreductase (UcpA) for increasing furfural or 5-hydroxymethylfurfural tolerance” (UNIVERSITY OF FLORIDA RESEARCH FOUNDATION, INCORPORATED, priority 2011, dated 2016)
# How the values were obtained:
# Assay type in all cases: cell-based, Escherichia coli
# LY180/pLOI4856 = experiment: pH-controlled batch fermentation (10% xylose)
# Protocol: (§1) Seed pre-cultures of strains containing pTrc99A or pLOI4856 were grown from plates using sealed culture tubes containing AM1 medium (20 g liter^−1 xylose, 12.5 mg liter^−1 ampicillin). After incubation for 16 h, pre-inocula were diluted into 500-ml fermentation vessels containing 300 ml AM1 media (100 g liter^−1 xylose, 1 mM betaine, 0.1 mM IPTG, 12.5 μg ml^−1 ampicillin) to provide a starting density of 13.2 mg dcw. After 24 h growth, these seed cultures were used to provide a starting inoculum for batch fermentations (AM1 medium, 100 g liter^−1 xylose, 12.5 μg ml^−1 ampicillin, 0.1 mM IPTG, 13.2 mg dcw initial density, and furfural). Fermentations were maintained at pH 6.5 […] by the automatic addition of KOH as previously described (Miller et al., 2009b). Ethanol was measured using an Agilent 6890N gas chromatograph (Palo Alto, Calif.) equipped with a flame ionization detector and a 15-meter HP-Plot Q Megabore column. Furfural concentration was monitored using a Beckman DU spectrophotometer (Martinez et al., 2000b; Miller et al., 2009b). Organic acids and xylose were measured by high-performance liquid chromatography (Miller et al., 2009b).
# (§2) The effects of UcpA on growth, ethanol production, and furfural metabolism were investigated in more detail during pH-controlled batch fermentation in mineral salt medium (AM1 medium containing 100 g xylose liter^−1, 0.1 mM IPTG and 12.5 μg ml^−1 ampicillin for all cultures harboring plasmids; furfural as indicated; inoculum of 22 mg dcw liter^−1) as previously described (Wang et al., 2011b). Ethanol (retention time 1.1 min) and furfuryl alcohol (retention time 6.2 min) were measured using an Agilent 6890N gas chromatograph (Santa Clara, Calif.) (Miller et al., 2009b). Furoic acid (retention time of 51.2 min) and sugars were measured by high-performance liquid chromatography (Geddes et al., 2010a). Furfural was measured using a Beckman-Coulter DU 800 spectrophotometer (Martinez et al., 2000a).
# LY180/pTrc99A = experiment: pH-controlled batch fermentation (10% xylose)
# Protocol: as §1, §2
# LY180 = experiment: pH-controlled batch fermentation (10% xylose)
# XW118 (LY180 ucpA::kan) = experiment: pH-controlled batch fermentation (10% xylose)
# Protocol: as §2
# E. coli W = experiment: pH-controlled batch fermentation (10% xylose)
# E. coli W/pTrc99A = experiment: pH-controlled batch fermentation (10% xylose); conditions: 10 mM furfural
# E. coli W/pLOI4856 = experiment: pH-controlled batch fermentation (10% xylose); conditions: 10 mM furfural
# [1] = system: oxidoreductase gene mRNA in LY180; experiment: Comparison of mRNA levels before and after furfural addition (expression array); conditions: 1.5 g/L furfural addition in LY180
# Protocol: Analysis of mRNA as a measure of gene expression was performed as previously described (Miller et al., 2009a). Cultures were grown using 4 separate 500-ml fermentation vessels per strain. Initial samples (control) were removed for RNA extraction when the culture density reached approximately 0.66 g dry cell weight (dcw) liter^−1 (1.5 OD 550 nm). Furfural (15 mM) was then added and incubation continued. After 15 min incubation with furfural, cells were harvested for RNA extraction. RNA was submitted to NimbleGen for analysis of global expression. Expression data was further analyzed using ArrayStar and Excel.
# UcpA was discovered accidentally as a beneficial gene for furfural tolerance during a search for E. coli NADH-utilizing oxidoreductase genes that could reduce furfural and confer resistance. […] We began by comparing expression levels of all E. coli genes in the absence of furfural and in the presence of 15 mM furfural (Table 1). […] These were further sorted to identify 5 candidate oxidoreductases that are known or putative users of NADH and have a 3-fold or higher expression level in the presence of 15 mM furfural. One of the genes was fucO, a gene previously discovered to reduce furfural using NADH and to increase furfural tolerance in E. coli. Four new candidates were identified. Two were operons encoding subunits (xdhABC and YeiTA) and two were monocistronic (ucpA and aldA). These 4 candidates are shown in bold type in Table 2.
# [2] = 15 mM furfural, batch fermentation of xylose to ethanol
structure (smiles),measurement,setting,value
O=Cc1ccco1 [furfural],Cell Yield,LY180/pLOI4856; 10 mM furfural,3.6 ± 0.1 g/L
same,Furfural-dependent slow growth Duration,LY180/pLOI4856; 10 mM furfural,22 ± 2 h
same,Furfural-dependent slow growth μ,LY180/pLOI4856; 10 mM furfural,0.09 ± 0.01 h⁻¹
same,μ Max,LY180/pLOI4856; 10 mM furfural,0.14 ± 0.01 h⁻¹
same,Final ethanol yield,"LY180/pLOI4856; 15 mM furfural, 100 g liter^−1 xylose",approximately 90 % of the theoretical maximum
same,Growth lag in the presence of furfural,LY180/pLOI4856; [2],24 h
same,Cell Yield,LY180/pTrc99A; 10 mM furfural,0.06 ± 0.01 g/L
same,Furfural-dependent slow growth Duration,LY180/pTrc99A; 10 mM furfural,>72 h
same,Furfural-dependent slow growth μ,LY180/pTrc99A; 10 mM furfural,<0.04 h⁻¹
same,μ Max,LY180/pTrc99A; 10 mM furfural,<0.04 h⁻¹
same,Growth in the presence of furfural,LY180/pTrc99A; [2],unable to grow
same,Cell Yield,LY180; 8 mM furfural,4.0 ± 0.1 g/L
same,Furfural-dependent slow growth μ,LY180; 8 mM furfural,0.09 ± 0.01 h⁻¹
same,μ Max,LY180; 8 mM furfural,0.16 ± 0.01 h⁻¹
same,Cell Yield,LY180; 10 mM furfural,0.08 ± 0.02 g/L
same,Furfural-dependent slow growth Duration,LY180; 10 mM furfural,>72 h
same,Furfural-dependent slow growth μ,LY180; 10 mM furfural,<0.04 h⁻¹
same,μ Max,LY180; 10 mM furfural,<0.04 h⁻¹
same,Cell Yield,XW118 (LY180 ucpA::kan); 8 mM furfural,4.0 ± 0.1 g/L
same,Furfural-dependent slow growth Duration,XW118 (LY180 ucpA::kan); 8 mM furfural,55 ± 2 h
same,Furfural-dependent slow growth μ,XW118 (LY180 ucpA::kan); 8 mM furfural,0.01 ± 0.01 h⁻¹
same,μ Max,XW118 (LY180 ucpA::kan); 8 mM furfural,0.14 ± 0.01 h⁻¹
same,Cell Yield,XW118 (LY180 ucpA::kan); 10 mM furfural,0.04 ± 0.01 g/L
same,Furfural-dependent slow growth Duration,XW118 (LY180 ucpA::kan); 10 mM furfural,>72 h
same,Furfural-dependent slow growth μ,XW118 (LY180 ucpA::kan); 10 mM furfural,<0.04 h⁻¹
same,μ Max,XW118 (LY180 ucpA::kan); 10 mM furfural,<0.04 h⁻¹
same,Cell Yield,E. coli W; 8 mM furfural,1.9 ± 0.1 g/L
same,Furfural-dependent slow growth Duration,E. coli W; 8 mM furfural,13 ± 1 h
same,Furfural-dependent slow growth μ,E. coli W; 8 mM furfural,0.18 ± 0.01 h⁻¹
same,μ Max,E. coli W; 8 mM furfural,0.19 ± 0.01 h⁻¹
same,Cell Yield,E. coli W; 10 mM furfural,2.0 ± 0.1 g/L
same,Furfural-dependent slow growth Duration,E. coli W; 10 mM furfural,21 ± 1 h
same,Furfural-dependent slow growth μ,E. coli W; 10 mM furfural,0.06 ± 0.02 h⁻¹
same,μ Max,E. coli W; 10 mM furfural,0.20 ± 0.02 h⁻¹
same,Cell Yield,E. coli W/pTrc99A,2.0 ± 0.3 g/L
same,Furfural-dependent slow growth Duration,E. coli W/pTrc99A,26 ± 4 h
same,Furfural-dependent slow growth μ,E. coli W/pTrc99A,0.03 ± 0.01 h⁻¹
same,μ Max,E. coli W/pTrc99A,0.13 ± 0.01 h⁻¹
same,Cell Yield,E. coli W/pLOI4856,2.5 ± 0.3 g/L
same,Furfural-dependent slow growth Duration,E. coli W/pLOI4856,16 ± 2 h
same,Furfural-dependent slow growth μ,E. coli W/pLOI4856,0.07 ± 0.01 h⁻¹
same,μ Max,E. coli W/pLOI4856,0.18 ± 0.02 h⁻¹
same,"Fold increase of mRNA, yagQ","[1]; b0283-b0286 yagQRST, 1st value",2.2 fold
same,"Fold increase of mRNA, yagR","[1]; b0283-b0286 yagQRST, 2nd value",2.3 fold
same,"Fold increase of mRNA, yagS","[1]; b0283-b0286 yagQRST, 3rd value",4.7 fold
same,"Fold increase of mRNA, yagT","[1]; b0283-b0286 yagQRST, 4th value",3.5 fold
same,"Fold increase of mRNA, ykgE",[1]; b0306,2.0 fold
same,"Fold increase of mRNA, frmB","[1]; b0355-b0356 frmBA, 1st value",4.4 fold
same,"Fold increase of mRNA, frmA","[1]; b0355-b0356 frmBA, 2nd value",5.7 fold
same,"Fold increase of mRNA, yajO",[1]; b0419,2.6 fold
same,"Fold increase of mRNA, ybdH",[1]; b0599,3.0 fold
same,"Fold increase of mRNA, sdhA","[1]; b0723-b0724 sdhAB, 1st value",5.3 fold
same,"Fold increase of mRNA, sdhB","[1]; b0723-b0724 sdhAB, 2nd value",5.8 fold
same,"Fold increase of mRNA, ybiC",[1]; b0801,2.2 fold
same,"Fold increase of mRNA, wrbA",[1]; b1004,3.0 fold
same,"Fold increase of mRNA, yciW",[1]; b1287,2.4 fold
same,"Fold increase of mRNA, ydbC",[1]; b1406,2.9 fold
same,"Fold increase of mRNA, aldA",[1]; b1415,4.2 fold
same,"Fold increase of mRNA, ydcW",[1]; b1444,2.5 fold
same,"Fold increase of mRNA, yncB",[1]; b1449,2.6 fold
same,"Fold increase of mRNA, nemA",[1]; b1650,6.4 fold
same,"Fold increase of mRNA, yobF",[1]; b2137,8.5 fold
same,"Fold increase of mRNA, yeiT","[1]; b2146-b2147 yeiTA, 1st value",3.1 fold
same,"Fold increase of mRNA, yeiA","[1]; b2146-b2147 yeiTA, 2nd value",3.0 fold
same,"Fold increase of mRNA, yeiQ",[1]; b2172,2.3 fold
same,"Fold increase of mRNA, ucpA",[1]; b2426,4.5 fold
same,"Fold increase of mRNA, yphC",[1]; b2545,2.3 fold
same,"Fold increase of mRNA, fucO",[1]; b2799,4.4 fold
same,"Fold increase of mRNA, xdhABC",[1]; b2868,5.8 fold
same,"Fold increase of mRNA, ygfS",[1]; b2886,2.1 fold
same,"Fold increase of mRNA, yqfA",[1]; b2899,2.2 fold
same,"Fold increase of mRNA, yghZ",[1]; b3001,2.0 fold
same,"Fold increase of mRNA, yqhD",[1]; b3011,4.6 fold
same,"Fold increase of mRNA, dkgA",[1]; b3012,5.4 fold
same,"Fold increase of mRNA, yiaK",[1]; b3572,2.4 fold
same,"Fold increase of mRNA, aldB",[1]; b3588,5.7 fold
